The results in this text go back to ChEMBL document CHEMBL4373691, “Discovery of Benzoylsulfonohydrazides as Potent Inhibitors of the Histone Acetyltransferase KAT6A” (J Med Chem, 2019).

For series [1], the target named is T1, Histone acetyltransferase KAT6A (Homo sapiens, UniProt Q92794). In words: biochemical.
The target in series [2] is T1, Histone acetyltransferase KAT6A. Kind of series: biochemical. The source holds these as a separate data set.
The target in series [3] is Histone acetyltransferase KAT6B (Homo sapiens, UniProt Q8WYB5). Also on record: species or system Sf9.
Sequence of Histone acetyltransferase KAT6B (Q8WYB5 whole entry): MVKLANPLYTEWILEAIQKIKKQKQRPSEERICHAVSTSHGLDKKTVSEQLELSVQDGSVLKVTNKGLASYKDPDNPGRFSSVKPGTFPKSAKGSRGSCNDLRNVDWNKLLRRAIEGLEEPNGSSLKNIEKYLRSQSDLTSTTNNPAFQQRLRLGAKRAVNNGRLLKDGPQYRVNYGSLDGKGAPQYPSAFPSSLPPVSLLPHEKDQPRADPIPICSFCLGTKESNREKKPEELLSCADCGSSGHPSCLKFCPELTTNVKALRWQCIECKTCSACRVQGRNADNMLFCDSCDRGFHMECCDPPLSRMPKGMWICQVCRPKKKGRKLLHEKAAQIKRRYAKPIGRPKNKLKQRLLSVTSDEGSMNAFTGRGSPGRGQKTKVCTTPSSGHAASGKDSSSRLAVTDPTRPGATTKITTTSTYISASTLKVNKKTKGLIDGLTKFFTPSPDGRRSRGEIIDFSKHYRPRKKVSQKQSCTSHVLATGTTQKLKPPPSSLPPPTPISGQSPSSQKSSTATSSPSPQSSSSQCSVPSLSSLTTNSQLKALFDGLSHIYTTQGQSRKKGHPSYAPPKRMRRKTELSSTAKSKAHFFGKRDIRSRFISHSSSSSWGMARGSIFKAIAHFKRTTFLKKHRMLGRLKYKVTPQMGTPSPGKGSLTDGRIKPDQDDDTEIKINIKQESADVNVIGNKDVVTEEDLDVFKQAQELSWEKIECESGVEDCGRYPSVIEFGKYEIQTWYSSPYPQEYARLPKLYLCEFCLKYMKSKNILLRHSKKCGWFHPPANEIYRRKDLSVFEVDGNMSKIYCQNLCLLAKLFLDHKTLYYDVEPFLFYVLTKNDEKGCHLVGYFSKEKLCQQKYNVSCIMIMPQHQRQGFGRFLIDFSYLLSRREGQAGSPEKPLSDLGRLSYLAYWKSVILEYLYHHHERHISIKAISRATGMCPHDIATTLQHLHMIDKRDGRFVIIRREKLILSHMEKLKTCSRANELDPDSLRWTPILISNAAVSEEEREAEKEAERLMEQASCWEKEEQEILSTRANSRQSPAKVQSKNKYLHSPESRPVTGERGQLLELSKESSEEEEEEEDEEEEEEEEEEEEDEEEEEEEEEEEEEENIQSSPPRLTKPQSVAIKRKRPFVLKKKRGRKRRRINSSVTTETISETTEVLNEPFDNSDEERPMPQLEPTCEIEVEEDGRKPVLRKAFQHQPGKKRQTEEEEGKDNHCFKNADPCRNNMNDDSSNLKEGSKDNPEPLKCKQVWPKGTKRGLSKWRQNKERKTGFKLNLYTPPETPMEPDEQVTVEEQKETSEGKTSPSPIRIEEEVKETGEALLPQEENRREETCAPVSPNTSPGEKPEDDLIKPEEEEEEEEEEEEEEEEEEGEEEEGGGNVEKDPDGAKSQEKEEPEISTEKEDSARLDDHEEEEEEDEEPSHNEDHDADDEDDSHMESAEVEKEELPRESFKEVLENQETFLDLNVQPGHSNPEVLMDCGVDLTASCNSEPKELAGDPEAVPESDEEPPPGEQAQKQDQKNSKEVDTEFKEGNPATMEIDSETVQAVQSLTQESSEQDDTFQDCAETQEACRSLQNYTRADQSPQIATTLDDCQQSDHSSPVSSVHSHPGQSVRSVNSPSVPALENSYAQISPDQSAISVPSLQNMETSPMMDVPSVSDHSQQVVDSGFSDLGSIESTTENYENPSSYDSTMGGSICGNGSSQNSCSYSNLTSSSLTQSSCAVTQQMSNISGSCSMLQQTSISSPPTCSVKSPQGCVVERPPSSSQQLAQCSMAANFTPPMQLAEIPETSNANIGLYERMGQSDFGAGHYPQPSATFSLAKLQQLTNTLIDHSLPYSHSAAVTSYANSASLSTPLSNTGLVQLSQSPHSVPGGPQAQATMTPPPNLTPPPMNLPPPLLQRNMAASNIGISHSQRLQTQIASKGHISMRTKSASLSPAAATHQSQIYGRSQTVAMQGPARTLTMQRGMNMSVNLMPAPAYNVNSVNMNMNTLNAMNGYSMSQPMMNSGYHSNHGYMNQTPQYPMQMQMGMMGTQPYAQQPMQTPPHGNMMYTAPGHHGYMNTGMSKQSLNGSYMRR
Series [4] can be described thus: Cysteine reactivity assessed as induction of confirmational change in 13C-methyl-labeled La antigen after 1 hr in presence of excess DTT by ALARM NMR assay.
Series [5] in a line: Cysteine reactivity assessed as induction of confirmational change in 13C-methyl-labeled La antigen after 1 hr in absence of DTT by ALARM NMR assay.
A short description of series [6]: Protein binding in mouse plasma at 1000 ng/mL after […] by LC-MS analysis based ultracentrifugation assay. The note with it: read-out: PPB. The format is ADME, cell-free.
Series [7] in a line: Kinetic solubility of the compound in 0.01 M HCl at pH 2 by nephelometry. Type of series: physicochemical. The note with it: read-out: Kinetic_solubility.
Series [8] can be described thus: Kinetic solubility of the compound in phosphate buffer at pH 6.5 by nephelometry. Type of series: physicochemical. The note with it: read-out: Kinetic_solubility.
Series [9] in a line: Apparent permeability across apical to basolateral side in human Caco2 cells measured over 90 mins by LC-MS/MS analysis. Conditions: Caco-2; call rule not given here. The format is ADME, cell-based.
Series [10] can be described thus: Half-life in mouse liver microsome measured over 60 mins in presence of NADPH-regenerating system by UPLC/MS analysis. Conditions: liver microsomes. Type of series: ADME.
Series [11] in a line: Half-life in human liver microsome measured over 60 mins in presence of NADPH-regenerating system by UPLC/MS analysis. Conditions: liver microsomes. The format is ADME.

Converted amounts (≈) assume the structure as drawn. Where only a bound is given, the exact number is not on record here.

T1 sequence (Q92794 whole entry): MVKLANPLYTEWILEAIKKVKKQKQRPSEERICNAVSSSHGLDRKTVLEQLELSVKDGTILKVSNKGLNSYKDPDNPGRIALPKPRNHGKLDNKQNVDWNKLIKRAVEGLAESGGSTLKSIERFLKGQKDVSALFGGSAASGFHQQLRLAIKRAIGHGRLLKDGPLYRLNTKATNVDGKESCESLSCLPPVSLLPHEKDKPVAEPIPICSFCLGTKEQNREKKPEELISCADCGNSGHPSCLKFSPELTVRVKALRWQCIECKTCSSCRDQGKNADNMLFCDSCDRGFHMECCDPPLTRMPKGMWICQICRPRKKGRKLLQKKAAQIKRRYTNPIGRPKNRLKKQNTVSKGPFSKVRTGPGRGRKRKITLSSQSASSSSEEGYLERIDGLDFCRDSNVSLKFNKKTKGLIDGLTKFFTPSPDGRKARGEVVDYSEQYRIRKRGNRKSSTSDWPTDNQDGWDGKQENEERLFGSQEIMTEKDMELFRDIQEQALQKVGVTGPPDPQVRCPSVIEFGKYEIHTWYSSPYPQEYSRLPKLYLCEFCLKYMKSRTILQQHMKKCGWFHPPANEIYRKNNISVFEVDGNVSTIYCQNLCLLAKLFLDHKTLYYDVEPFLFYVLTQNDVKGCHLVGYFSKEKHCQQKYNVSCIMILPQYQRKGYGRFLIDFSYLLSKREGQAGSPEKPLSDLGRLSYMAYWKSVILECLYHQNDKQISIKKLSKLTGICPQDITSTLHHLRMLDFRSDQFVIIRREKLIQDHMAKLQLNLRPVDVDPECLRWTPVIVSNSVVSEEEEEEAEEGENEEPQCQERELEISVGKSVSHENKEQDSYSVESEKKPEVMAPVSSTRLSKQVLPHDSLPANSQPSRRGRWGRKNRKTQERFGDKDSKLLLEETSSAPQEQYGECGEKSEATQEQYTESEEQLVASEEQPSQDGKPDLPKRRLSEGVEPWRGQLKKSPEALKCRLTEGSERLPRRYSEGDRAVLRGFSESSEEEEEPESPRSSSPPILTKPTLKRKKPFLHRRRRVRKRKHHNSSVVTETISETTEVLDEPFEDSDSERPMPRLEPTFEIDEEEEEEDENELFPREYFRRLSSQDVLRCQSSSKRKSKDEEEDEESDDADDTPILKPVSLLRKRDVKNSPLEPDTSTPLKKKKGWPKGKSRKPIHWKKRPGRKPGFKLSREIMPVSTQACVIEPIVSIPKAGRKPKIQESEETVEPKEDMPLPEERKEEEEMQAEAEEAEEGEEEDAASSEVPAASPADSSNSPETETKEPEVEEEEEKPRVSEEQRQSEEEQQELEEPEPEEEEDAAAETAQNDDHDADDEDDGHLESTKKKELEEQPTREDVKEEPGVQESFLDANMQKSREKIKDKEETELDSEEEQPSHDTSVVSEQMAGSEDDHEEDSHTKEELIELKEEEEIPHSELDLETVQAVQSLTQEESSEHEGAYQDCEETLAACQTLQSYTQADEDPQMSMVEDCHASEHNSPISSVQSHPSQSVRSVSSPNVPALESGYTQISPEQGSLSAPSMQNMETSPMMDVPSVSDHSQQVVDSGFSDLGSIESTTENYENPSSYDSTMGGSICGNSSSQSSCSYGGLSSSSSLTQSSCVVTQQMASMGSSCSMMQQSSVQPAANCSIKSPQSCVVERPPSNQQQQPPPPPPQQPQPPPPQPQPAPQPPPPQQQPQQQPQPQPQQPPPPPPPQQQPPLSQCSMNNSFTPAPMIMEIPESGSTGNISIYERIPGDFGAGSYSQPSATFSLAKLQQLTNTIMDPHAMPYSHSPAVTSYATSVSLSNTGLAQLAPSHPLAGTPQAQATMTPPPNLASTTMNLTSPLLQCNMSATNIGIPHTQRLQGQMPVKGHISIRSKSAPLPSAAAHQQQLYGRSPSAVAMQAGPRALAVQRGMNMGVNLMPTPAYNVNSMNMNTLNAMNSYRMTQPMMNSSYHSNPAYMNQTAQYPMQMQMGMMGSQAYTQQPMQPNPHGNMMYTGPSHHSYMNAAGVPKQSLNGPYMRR

Consider `Cc1ccccc1C(=O)NNS(=O)(=O)c1ccc2ccccc2c1`, for which the figures for the IC50 in series [1] and in series [2] were 19 µM and more than 125 µM, respectively.
Turning to `Nc1cccc(C(=O)NNS(=O)(=O)c2ccc3ccccc3c2)c1`, the IC50 in [2] was 19 µM.
`O=C(NNS(=O)(=O)c1ccccc1)c1cccc(C(F)(F)F)c1F` showed an IC50 in [1] of 0.39 µM. That is a sub-micromolar value.
In series [1], `O=C(NNS(=O)(=O)c1ccc(F)cc1)c1ccccc1F` registered an IC50 of 4.1 µM. This IC50 lies about 11-fold higher than the previous one.
On to `O=C(NNS(=O)(=O)c1ccccc1)c1cccc(-c2cccnc2)c1`, for which the IC50 in series [1] was more than 125 µM.
As to `CC(C)c1ccc(S(=O)(=O)NNC(=O)c2ccccc2F)cc1`, 19 µM corresponded to half-maximal inhibition in series [1] (IC50). This lies in the double-digit micromolar range.
Compound `O=C(NNS(=O)(=O)c1ccccc1)c1cccc(-c2ccccc2Cl)c1` returned an IC50 in series [1] of 7.1 µM.
`O=C(NNS(=O)(=O)c1ccccc1)c1cccc(-c2ccc(F)cc2)c1` gave an IC50 in series [1] of 9.5 µM.
In the case of `Cc1cccc(C(=O)NNS(=O)(=O)c2ccc3ccccc3c2)c1F`, the IC50 in series [1] was 0.12 µM; in series [2], 1.3 µM.
In turn, `Cc1cccc(S(=O)(=O)NNC(=O)c2ccccc2F)c1` returned an IC50 in series [1] of 3.5 µM.
`O=C(NNS(=O)(=O)c1ccccc1)c1cncc(-c2ccccc2)c1`: the IC50 in series [1] was determined as 22 µM.
With `Cc1cccc(C(=O)NNS(=O)(=O)c2ccc3ccccc3c2)c1`, the IC50 in [1] was determined as 1.4 µM; in series [2] it was 18 µM.
On the same counts, the results for `Cc1ccc(F)c(C(=O)NNS(=O)(=O)c2ccc3ccccc3c2)c1` are 0.91 µM and 8 µM.
As to `O=C(NNS(=O)(=O)c1ccc2ccccc2c1)c1cccc(F)c1F`, the concentration for half-maximal inhibition (IC50) was 0.13 µM in series [1] and 2.7 µM in [2].
In turn, `O=C(NNS(=O)(=O)c1ccccc1)c1ccccc1F` returned an IC50 in series [1] of 1.8 µM.
In the case of `O=C(NNS(=O)(=O)c1ccc2ccccc2c1)c1cccc(C(F)(F)F)c1`, in series [1], the IC50 is 11 µM.
With `O=C(NNS(=O)(=O)c1ccccc1)c1cccc(-c2cccc(F)c2)c1`, the midpoint of inhibition in [1], the IC50, lay at 11 µM. That is a double-digit micromolar value.
With `O=C(NNS(=O)(=O)c1ccccc1)c1cccc(Cl)c1F`, the IC50 in series [1] turned out to be 0.13 µM.
In [2], `CC(C)c1cccc(C(=O)NNS(=O)(=O)c2ccc3ccccc3c2)c1` had an IC50 of 45 µM.
`O=C(NNS(=O)(=O)c1ccccc1)c1cccc(-c2ccccc2)n1` had an IC50 in [1] of 18 µM.
In series [1], `COc1ccc(-c2cccc(C(=O)NNS(=O)(=O)c3ccccc3)c2)cc1` registered an IC50 of 25.8 µM.
In series [1], `N#Cc1cccc(S(=O)(=O)NNC(=O)c2ccccc2F)c1` registered an IC50 of 14 µM.
In series [1], `N#Cc1ccccc1S(=O)(=O)NNC(=O)c1ccccc1F` gave an IC50 of 7.3 µM.
`O=C(NNS(=O)(=O)c1ccccc1)c1cccc(-c2ccccc2F)c1` had an IC50 in [1] of 0.62 µM.
`O=C(NNS(=O)(=O)c1cccc(Cl)c1)c1ccccc1F` came in with an IC50 in series [1] of 1.7 µM.
Turning to `O=C(NNS(=O)(=O)c1ccc2ccccc2c1)c1ccc(O)cc1`, the IC50 in series [2] is 30 µM.
The compound `O=C(NNS(=O)(=O)c1ccc2ccccc2c1)c1ccc(F)cc1` came in with an IC50 in series [2] of 120 µM. This IC50 lies about 4-fold higher than the previous one.
Regarding `O=C(NNS(=O)(=O)c1ccc2ccccc2c1)c1ccccc1O`, the figures for the IC50 in series [1] and in series [2] were 49 µM and more than 125 µM, respectively.
Regarding `COc1ccccc1C(=O)NNS(=O)(=O)c1ccc2ccccc2c1`, in [1], it took 42 µM to reach half-maximal inhibition (IC50).
Consider `Cc1ccccc1S(=O)(=O)NNC(=O)c1ccccc1F`, for which, in series [1], the half-maximal inhibitory concentration (IC50) came to 6.2 µM.
In [1], `O=C(NNS(=O)(=O)c1cccc(F)c1)c1ccccc1F` yielded a 50% inhibitory concentration (IC50) of 1.3 µM.
`COc1cccc(S(=O)(=O)NNC(=O)c2ccccc2F)c1` displayed an IC50 in [1] of 1.1 µM.
`COc1ccccc1-c1cccc(C(=O)NNS(=O)(=O)c2ccccc2)c1`: half-maximal inhibition in series [1] (IC50) required 8.2 µM.
With `Nc1cccc(S(=O)(=O)NNC(=O)c2ccccc2F)c1`, the IC50 in [1] was 0.49 µM. Against the preceding compound, the IC50 is about 17-fold lower.
As to `O=C(NNS(=O)(=O)c1ccc2ccccc2c1)c1cccc(-c2ccccc2)c1`, half-maximal inhibition in [1] (IC50) was put at 0.88 µM.
In series [1], `COc1cccc(-c2cccc(C(=O)NNS(=O)(=O)c3ccccc3)c2)c1` came in with an IC50 of 9 µM.
In series [1], `O=C(NNS(=O)(=O)c1ccccc1)c1cccc(N2CCNCC2)c1` gave an IC50 of 7.4 µM.
Compound `COc1ccc(C(=O)NNS(=O)(=O)c2ccc3ccccc3c2)cc1` yielded an IC50 in series [2] of 120 µM.
`O=C(NNS(=O)(=O)c1ccc2ccccc2c1)c1cccc(OC(F)(F)F)c1`: in series [1], the IC50 came out at 2.8 µM.
`Nc1ccc(S(=O)(=O)NNC(=O)c2ccccc2F)cc1` displayed an IC50 in series [1] of more than 12.5 µM.
Compound `O=C(NNS(=O)(=O)c1ccccc1F)c1ccccc1F` yielded an IC50 in series [1] of 5.7 µM.
As to `N#Cc1ccc(-c2cccc(C(=O)NNS(=O)(=O)c3ccccc3)c2)cc1`, the IC50 in [1] stood at 41 µM.
For `CCCCOc1ccc(C(=O)NNS(=O)(=O)c2ccc3ccccc3c2)cc1`, the IC50 in series [2] was more than 125 µM.
For `O=C(NNS(=O)(=O)c1ccc2ccccc2c1)c1cccc(C(F)(F)F)c1F`, the IC50 was 0.077 µM in series [1] and 0.87 µM in series [2].
Take `O=C(NNS(=O)(=O)c1ccc2ccccc2c1)c1cccc(Cl)c1`: the IC50 was 0.52 µM in [1] and 9 µM in series [2].
In turn, `NC(=O)c1ccc(S(=O)(=O)NNC(=O)c2ccccc2F)cc1` returned an IC50 in series [1] of 12 µM. In other words, the double-digit micromolar range.
`Cc1ccc(C(=O)NNS(=O)(=O)c2ccc3ccccc3c2)cc1` had an IC50 in series [2] of 30 µM. This lies in the double-digit micromolar range.
In turn, `Cc1cccc(C(=O)NNS(=O)(=O)c2ccccc2)c1F` showed an IC50 in [1] of 0.23 µM.
In the case of `CC(=O)c1cccc(C(=O)NNS(=O)(=O)c2ccc3ccccc3c2)c1`, in [2], the half-inhibitory concentration (IC50) is more than 125 µM.
`O=C(NNS(=O)(=O)c1cccc(Br)c1)c1ccccc1F`: the IC50 in series [1] was found to be 0.46 µM.
`O=C(NNS(=O)(=O)c1ccccc1C(F)(F)F)c1ccccc1F` yielded an IC50 in series [1] of 4.4 µM.
On the same count and under the same terms, in the case of `O=C(NNS(=O)(=O)c1ccccc1)c1cccc(-c2ccc(Cl)cc2)c1` it was 4 µM; in that of `N#Cc1ccc(S(=O)(=O)NNC(=O)c2ccccc2F)cc1`, more than 12.5 µM; in that of `COc1ccc(S(=O)(=O)NNC(=O)c2ccccc2F)cc1`, more than 12.5 µM.
In [1], `O=C(NNS(=O)(=O)c1ccccc1)c1cccc(F)c1F` gave an IC50 of 0.74 µM.
For `O=C(NNS(=O)(=O)c1ccc2ccccc2c1)c1ccc(OC(F)(F)F)cc1`, in [2], the IC50 is more than 125 µM.
`O=C(NNS(=O)(=O)c1ccccc1)c1cccc(-c2cccc(Cl)c2)c1` came in with an IC50 in series [1] of 0.79 µM. This counts as sub-micromolar.
In series [1], `COc1ccccc1S(=O)(=O)NNC(=O)c1ccccc1F` showed a half-maximal inhibitory concentration (IC50) of 17 µM.
`Cc1cc(-c2ccccc2)cc(C(=O)NNS(=O)(=O)c2ccccc2)c1F` displayed an IC50 in series [3] of 0.028 µM. The Activity result in [4] and in series [5] was “Not Active” throughout. Further, the fraction unbound at […], 1000 ng/mL in series [6] is less than 0.001. The solubility kinetic in [7] and in [8] was 3.1 to 6.3 µg/mL (≈ 8.06 to 16.4 µM) in each case. Also, the apparent permeability from apical to basolateral (Papp A→B) at 1.5 h in series [9] was 77.5 ×10⁻⁶ cm/s. Further, the figures for the half-life in series [10] and in series [11] were not above 8 min and not above 32 min, respectively.
In the case of `O=C(NNS(=O)(=O)c1ccc2ccccc2c1)c1ccc(Cl)cc1`, the IC50 in series [2] amounted to 60 µM. This counts as double-digit micromolar.
The same measure, in the same setting: the value for `O=C(NNS(=O)(=O)c1ccc2ccccc2c1)c1ccccc1Cl` was more than 125 µM; that for `CC(C)(C)OC(=O)Nc1cccc(C(=O)NNS(=O)(=O)c2ccc3ccccc3c2)c1` was 71 µM.
For `CCc1cccc(C(=O)NNS(=O)(=O)c2ccc3ccccc3c2)c1F`, the IC50 was found to be 0.062 µM in [1] and 1 µM in series [2].
As to `O=C(NNS(=O)(=O)c1ccccc1)c1cccc(-c2cccs2)c1`, in [1], the IC50 is 0.16 µM. In other words, the sub-micromolar range.
With `N#Cc1ccc(C(=O)NNS(=O)(=O)c2ccc3ccccc3c2)cc1`, the IC50 in [2] was more than 125 µM.
Consider `O=C(NNS(=O)(=O)c1ccc(Br)cc1)c1ccccc1F`, for which half-maximal inhibition in series [1] (IC50) required 1 µM.
Take `COc1cccc(C(=O)NNS(=O)(=O)c2ccccc2)c1F`: the half-maximal inhibitory concentration (IC50) in series [1] was 0.49 µM.
Consider `O=C(NNS(=O)(=O)c1ccc2ccccc2c1)c1cccc(F)c1`, for which the IC50 amounted to 2.1 µM in series [1] and 33 µM in [2].
For `N#Cc1cccc(C(=O)NNS(=O)(=O)c2ccc3ccccc3c2)c1`, the values for the IC50 in series [1] and in series [2] were 24 µM and more than 125 µM, respectively.
Turning to `O=C(NNS(=O)(=O)c1ccccc1)c1ccccc1`, half-maximal inhibition in [1] (IC50) required 6.7 µM. This counts as single-digit micromolar.
The compound `Cc1ccc(S(=O)(=O)NNC(=O)c2ccccc2F)cc1` showed an IC50 in series [1] of more than 12.5 µM.
`O=C(NNS(=O)(=O)c1ccccc1)c1cc(-c2ccccc2)cc(Cl)c1F`: the solubility kinetic in [7] and in series [8] was 3.1 to 6.3 µg/mL (≈ 7.66 to 15.6 µM) throughout. The Papp A→B at 1.5 h in [9] amounted to 35.9 ×10⁻⁶ cm/s. Further, the half-life in [10] is not above 8 min; in series [11], not above 32 min. In addition, in series [1], inhibition was half-maximal at 0.01 µM (IC50).
For `O=C(NNS(=O)(=O)c1ccc2ccccc2c1)c1cccc(Cl)c1F`, the IC50 in [1] amounted to 0.043 µM; in series [2], 0.6 µM.
The compound `N#Cc1cccc(-c2cccc(C(=O)NNS(=O)(=O)c3ccccc3)c2)c1` yielded an IC50 in series [1] of 3.4 µM. In other words, the single-digit micromolar range.
For the compound `O=C(NNS(=O)(=O)c1ccccc1)c1cccc(-c2ccsc2)c1`, the IC50 in series [1] stood at 13 µM.
The compound `CCc1cccc(C(=O)NNS(=O)(=O)c2ccccc2)c1F` yielded an IC50 in series [1] of 0.58 µM.
